According to US20230279002A1, “Polymorphs of Crystalline Forms of 3,10-dimethoxy-5,8,13,13a-tetrahydro-6H-isoquinolino[3,2-a]isoquinolin-9-yl 3-fluorobenzenesulfonate and Salts Thereof” (CVI Pharmaceuticals Limited, priority 2020, published 2023):

Experiments:
Type in all cases: physicochemical
[1] = DVS (Dynamic Vapor Sorption) moisture sorption/desorption, hygroscopicity classification
Description: DVS (Dynamic Vapor Sorption): Around 10-20 mg of samples were used to test its moisture sorption/desorption profiles at 25° C. under 0%˜95%˜0% relative humidity (RH) cycle using dm/dt: 0.01%/min equilibrium and a measurement step of 5% RH.
Hygroscopicity Classification: Typical %-moisture gain as a function of increased RH was determined by DVS. Samples went through a dynamic test isothermally at 25° C. The test was divided into 2 processes, one was absorption process, the other was desorption process. RH ranged from 0% to 95% with 5% RH for each step, and when dm/dt<=0.01%, it was assumed the water sorption/desorption equilibrium is reached.

[2] = Solubility in SGF, FaSSIF, FeSSIF, 0.1M HCl, pH 4.5 and pH 6.8 aqueous at 25° C. (HPLC); conditions: for Solubility conc.(mg/ml): solubility of salts transformed to freebase; for Final pH: solubility test
Description: Solubility: Excess drug substance was equilibrated with SGF (Simulated Gastric Fluid), FaSSIF (Simulated Small Intestinal Fluid under Fasted state), FeSSIF (Simulated Small Intestinal Fluid under Fed state), 0.1M HCl, pH 4.5 aqueous, and pH 6.8 aqueous at 25° C. After stirring for 20˜24 h, each sample was filtered, diluted appropriately and analyzed by HPLC. The experiment was terminated once a solubility target of 5 mg/mL was reached.

[3] = Solid stability at 40° C./0% RH (closed) and 40° C./75% RH (open), HPLC; conditions: for 0 day % remaining / 7 day % remaining / 21 day % remaining: solid
Description: (§1) Solid stability: 5 mg of 2a was weighed into scintillation vials sealed properly and stored at 40° C./0% RH(closed), 40° C./75% RH(open) under dark conditions to avoid the effect of light on stability. Samples were collected at day 0, 5 and 10 and analyzed by HPLC.
Solid stability: 5 mg of compound was weighed into vials sealed properly and stored at 40° C./0% RH (closed), 40° C./75% RH (open) under dark conditions to avoid the effect of light. Samples were analyzed by HPLC at days 0, 7, and 21.
as §1, with “stability of compound 1a:” for “stability:”, “compound were accurately” for “of 2a was”, “condition” for “conditions”, “should be” for “were”, “10 days” for “10”

[4] = Solution stability in 0.1 N HCl, pH 4.5 buffer and pH 6.8 buffer at 25° C. and 37° C., HPLC
Description: Solution stability: A stock solution of compound (1.0 mg/mL) in MeOH was diluted with 0.1 N HCl, pH 4.5 buffer (acetate) and pH 6.8 buffer to reach constant ionic strength of 0.15 M and the same final concentration (50 μg/mL, 40% MeOH).
A stock solution of 1b and 3b (1.0 mg/mL) in MeOH was diluted with pH 6.8 buffer to reach constant ionic strength of 0.15M and the same final concentration (25 μg/mL, 40% […]).
The solutions were stored at 25° C. and 37° C.

## COc1ccc2c(c1)CCN1Cc3c(ccc(OC)c3OS(=O)(=O)c3cccc(F)c3)C[C@@H]21 [Compound 3b]
[1]; 25 °C
  Hygroscopicity classification by DVS: hygroscopic
[1]; Cycle 1, target RH 0.0%
  Change In Mass (%) - ref, Desorption: 0.05%
  Change In Mass (%) - ref, Sorption: 0.00%
[1]; Cycle 1, target RH 5.0%
  Change In Mass (%) - ref, Desorption: 0.26%
  Change In Mass (%) - ref, Hysteresis: 0.23%
  Change In Mass (%) - ref, Sorption: 0.03%
[1]; Cycle 1, target RH 10.0%
  Change In Mass (%) - ref, Desorption: 0.46%
  Change In Mass (%) - ref, Hysteresis: 0.18%
  Change In Mass (%) - ref, Sorption: 0.28%
[1]; Cycle 1, target RH 15.0%
  Change In Mass (%) - ref, Desorption: 0.61%
  Change In Mass (%) - ref, Hysteresis: 0.29%
  Change In Mass (%) - ref, Sorption: 0.32%
[1]; Cycle 1, target RH 20.0%
  Change In Mass (%) - ref, Desorption: 4.13%
  Change In Mass (%) - ref, Hysteresis: 3.79%
  Change In Mass (%) - ref, Sorption: 0.34%
[1]; Cycle 1, target RH 25.0%
  Change In Mass (%) - ref, Desorption: 8.89%
  Change In Mass (%) - ref, Hysteresis: 8.50%
  Change In Mass (%) - ref, Sorption: 0.39%
[1]; Cycle 1, target RH 30.0%
  Change In Mass (%) - ref, Desorption: 9.08%
  Change In Mass (%) - ref, Hysteresis: 1.62%
  Change In Mass (%) - ref, Sorption: 7.46%
[1]; Cycle 1, target RH 35.0%
  Change In Mass (%) - ref, Desorption: 9.14%
  Change In Mass (%) - ref, Hysteresis: 0.21%
  Change In Mass (%) - ref, Sorption: 8.93%
[1]; Cycle 1, target RH 40.0%
  Change In Mass (%) - ref, Desorption: 9.18%
  Change In Mass (%) - ref, Hysteresis: 0.13%
  Change In Mass (%) - ref, Sorption: 9.06%
[1]; Cycle 1, target RH 45.0%
  Change In Mass (%) - ref, Desorption: 9.26%
  Change In Mass (%) - ref, Hysteresis: 0.16%
  Change In Mass (%) - ref, Sorption: 9.10%
[1]; Cycle 1, target RH 50.0%
  Change In Mass (%) - ref, Desorption: 10.73%
  Change In Mass (%) - ref, Hysteresis: 1.59%
  Change In Mass (%) - ref, Sorption: 9.14%
[1]; Cycle 1, target RH 55.0%
  Change In Mass (%) - ref, Desorption: 10.99%
  Change In Mass (%) - ref, Hysteresis: 1.77%
  Change In Mass (%) - ref, Sorption: 9.22%
[1]; Cycle 1, target RH 60.0%
  Change In Mass (%) - ref, Desorption: 11.23%
  Change In Mass (%) - ref, Hysteresis: 1.82%
  Change In Mass (%) - ref, Sorption: 9.41%
[1]; Cycle 1, target RH 65.0%
  Change In Mass (%) - ref, Desorption: 11.50%
  Change In Mass (%) - ref, Hysteresis: 0.36%
  Change In Mass (%) - ref, Sorption: 11.14%
[1]; Cycle 1, target RH 70.0%
  Change In Mass (%) - ref, Desorption: 11.84%
  Change In Mass (%) - ref, Hysteresis: 0.04%
  Change In Mass (%) - ref, Sorption: 11.79%
[1]; Cycle 1, target RH 75.0%
  Change In Mass (%) - ref, Desorption: 12.27%
  Change In Mass (%) - ref, Hysteresis: 0.04%
  Change In Mass (%) - ref, Sorption: 12.23%
[1]; Cycle 1, target RH 80.0%
  Change In Mass (%) - ref, Desorption: 12.85%
  Change In Mass (%) - ref, Hysteresis: 0.05%
  Change In Mass (%) - ref, Sorption: 12.79%
[1]; Cycle 1, target RH 85.0%
  Change In Mass (%) - ref, Desorption: 13.71%
  Change In Mass (%) - ref, Hysteresis: 0.08%
  Change In Mass (%) - ref, Sorption: 13.64%
[1]; Cycle 1, target RH 90.0%
  Change In Mass (%) - ref, Desorption: 15.23%
  Change In Mass (%) - ref, Hysteresis: 0.15%
  Change In Mass (%) - ref, Sorption: 15.08%
[1]; Cycle 1, target RH 95.0%
  Change In Mass (%) - ref, Desorption: 17.97%
  Change In Mass (%) - ref, Sorption: 17.97%
[1]; at 80% RH, 25 °C
  moisture picked up (DVS): ~13%
[1]; at 95% RH, 25 °C
  moisture picked up (DVS): ~18%
[2]; 0.1N HCL
  Solubility conc.(mg/ml): 0.261 mg/mL
  Final pH: 1.56
[2]; FaSSIF
  Solubility conc.(mg/ml): 0.009 mg/mL
  Final pH: 6.04
[2]; FeSSIF
  Solubility conc.(mg/ml): 0.010 mg/mL
  Final pH: 4.87
[2]; SGF
  Solubility conc.(mg/ml): 1.828 mg/mL
  Final pH: 1.55
[2]; Water
  Solubility conc.(mg/ml): 0.145 mg/mL
  Final pH: 2.71
[2]; pH 4.5 Acetate Buffer (USP)
  Solubility conc.(mg/ml): 0.012 mg/mL
  Final pH: 4.42
[2]; pH 6.8 Phosphate Buffer (USP)
  Solubility conc.(mg/ml): 0.014 mg/mL
  Final pH: 6.64
[3]; 40° C./0% RH (closed) and 40° C./75% RH (open), dark, up to 3 weeks
  Solid-state stability (HPLC): substantially stable
[3]; 40° C. (0% RH, closed)
  0 day % remaining: 100.0%
  7 day % remaining: 99.1%
  21 day % remaining: 99.2%
[3]; 40° C./75% RH (open)
  0 day % remaining: 100.0%
  7 day % remaining: 100.3%
  21 day % remaining: 99.8%
[4]; 25° C., 0.1N HCL, 0 h, 50 μg/mL, 40% MeOH
  Remaining %: 100.00%
[4]; 25° C., 0.1N HCL, 3 h, 50 μg/mL, 40% MeOH
  Remaining %: 100.31%
[4]; 25° C., 0.1N HCL, 24 h, 50 μg/mL, 40% MeOH
  Remaining %: 100.62%
[4]; 25° C., 24 h, 0.1 N HCl, pH 4.5 buffer and pH 6.8 buffer
  Solution stability: stable
[4]; 25° C., pH 4.5, 0 h, 50 μg/mL, 40% MeOH
  Remaining %: 100.00%
[4]; 25° C., pH 4.5, 3 h, 50 μg/mL, 40% MeOH
  Remaining %: 100.00%
[4]; 25° C., pH 4.5, 24 h, 50 μg/mL, 40% MeOH
  Remaining %: 100.08%
[4]; 25° C., pH 6.8*, 0 h, final conc. 25 μg/mL with 40% DMSO
  Remaining %: 100.00%
[4]; 25° C., pH 6.8*, 3 h, final conc. 25 μg/mL with 40% DMSO
  Remaining %: 99.64%
[4]; 25° C., pH 6.8*, 24 h, final conc. 25 μg/mL with 40% DMSO
  Remaining %: 99.64%
[4]; 37° C., 0.1N HCL, 0 h, 50 μg/mL, 40% MeOH
  Remaining %: 100.00%
[4]; 37° C., 0.1N HCL, 3 h, 50 μg/mL, 40% MeOH
  Remaining %: 99.92%
[4]; 37° C., 0.1N HCL, 24 h, 50 μg/mL, 40% MeOH
  Remaining %: 100.92%
[4]; 37° C., 24 h, 0.1N HCl, pH 4.5 buffer
  Solution stability: stable
[4]; 37° C., 24 h, pH 6.8 buffer
  Solution stability: decomposed
[4]; 37° C., pH 4.5, 0 h, 50 μg/mL, 40% MeOH
  Remaining %: 100.00%
[4]; 37° C., pH 4.5, 3 h, 50 μg/mL, 40% MeOH
  Remaining %: 100.39%
[4]; 37° C., pH 4.5, 24 h, 50 μg/mL, 40% MeOH
  Remaining %: 100.47%
[4]; 37° C., pH 6.8*, 0 h, final conc. 25 μg/mL with 40% DMSO
  Remaining %: 100.00%
[4]; 37° C., pH 6.8*, 3 h, final conc. 25 μg/mL with 40% DMSO
  Remaining %: 99.22%
[4]; 37° C., pH 6.8*, 24 h, final conc. 25 μg/mL with 40% DMSO
  Remaining %: 85.89%
